Assay results: patent EP0181592B1, “Use of spergualin derivatives for the preparation of medicaments having immunosuppressive activity” (MICROBIAL CHEMISTRY RESEARCH FOUNDATION, priority 1984, dated 1986)

Assays:
[1] = test system: Mice Sensitized by Sheep Red Blood Cells; test: Inhibition of delayed-type hypersensitivity in mice sensitized by sheep red blood cells (footpad swelling); type: in vivo, CDFl mice; conditions: relative to saline control = 100%, measured at the 24th hour
Method: CDFl mice (8-wk-old, female) were sensitized by intravenous injection of 1 x 10⁵ sheep red blood cells. Four days later, the sensitized mice were subcutaneously injected in one footpad with 1 x 10⁸ sheep red blood cells so as to induce delayed-type hypersensitivity. The swelling of the footpad was measured at the 24th hour with a micrometer. Each of the test compounds was administered intraperitoneally in the amounts (mg/kg) indicated in Table 3 for a period of 3 days that started on the day following the initial sensitization. The degree of footpad swelling was indicated in relative values, with the value for a control given physiological saline instead of the test compounds being taken as 100%.

[2] = test system: Spleen cells from BALB/C mice; test: Inhibition of ConA-induced T-lymphocyte blast genesis (3H-thymidine uptake); type: cell-based; conditions: for inhibition of the reaction of T-lymphocyte blast genesis (in words): ConA-stimulated; for inhibition at 10 µg/mL / inhibition at 100 µg/mL: Mus musculus, T-lymphocyte, ConA 5 µg/ml, 72 hours; for inhibition at 10 µg/mL: 10 µg/ml compound; for inhibition at 100 µg/mL: 100 µg/ml compound
Method: (§1) Spleen cells from BALB/C mice were distributed among wells in a microplate so that each well contained 2 x 10⁵ cells/0.2 ml. Each of the selected test compounds was added to all wells but one, the latter being used as a control. ConA (5 µg/ml) was added to all the wells and the so prepared cell suspensions were cultivated in a 5% CO₂ incubator for 72 hours at 37°C. Eight hours before the completion of the incubation, 1 µCi of ³H-thymidine was added to each well and the uptake of the thymidine by the cultured cells was measured with a liquid scintillation counter to estimate the progress of reaction of T-lymphocyte blast genesis. The percentage inhibition of the genesis by each of the test compounds was calculated by: (1 - Bdpm/Adpm) x 100 wherein Adpm indicates the uptake count for the addition of ConA alone and Bdpm, the count for the addition of both ConA and the test compound.

[3] = test system: CDFl mice; test: Inhibition of production of antibodies against sheep red blood cells (plaque-forming spleen cells); type: in vivo; conditions: 12.5 mg/kg per day intraperitoneally for 3 days; plaque-forming spleen cells counted
Text: The compounds of the formula I exert inhibitory effects on the function of lymphocytes of immunological importance. […] Therefore in vivo experiments have been conducted to examine the effects of the compounds of the formula I on T-lymphocytes. First, in accordance with the method of Lagrange et al. (Lagrange et al., Journal of Experimental Medicine, 139, 528-542, 1974), the compounds of the formula I were examined for their effects on delayed-type hypersensivity in mice that had been sensitized with sheep red blood cells. The delayed-type hypersensivity could be blocked by administering the compound for three consecutive days following the sensitization with sheep red blood cells. Additionally, in accordance with the method of Jerne et al. (Jerne et al., Cell-bound Antibodies, pp. 109-122, 1963), the compounds of the formula I were checked for their effects on the plaque-forming ability of spleen cells from mice sensitized by antigenic sheep red blood cells.
CDFl mice (6-10 wk old, female) were immunized by intravenous injection of 1 x 10⁸ sheep red blood cells. The mice were intraperitoneally administered 12.5 mg/kg per day of selected test compounds for a period of 3 days starting from the day following the intravenous injection. Four days later, spleen cells were isolated from the mice and the number of plaque-forming cells was counted. The percentage inhibition of antibody production was calculated by (1 - B/A) x 100 wherein A is the count for a control group (given physiological saline) and B, for the treated group.

[4] = test system: Spleen cells from BALB/C mice; test: Inhibition of LPS-induced B-lymphocyte blast genesis (3H-thymidine uptake); type: cell-based; conditions: for suppression of LPS-induced genesis of B-lymphocyte blasts (in words): LPS-stimulated; for inhibition at 10 µg/mL / inhibition at 100 µg/mL: Mus musculus, 100 µg/ml of LPS from E. coli; for inhibition at 10 µg/mL: 10 µg/ml compound; for inhibition at 100 µg/mL: 100 µg/ml compound
Method: as §1
The uptake of ³H-thymidine by B-cell blasts was measured in accordance with the method used in Test Example 2, except that the inducer ConA was replaced by 100 µg/ml of LPS from E. coli. The percentage inhibition of blast genesis by selected test compounds was also determined by the same method as used in Text Example 2.

[5] = Toxicity to mice (LD50, single intraperitoneal administration); conditions: mouse, in vivo, ip, read-out: LD₅₀
Text: The compounds of the formula I are characterized by relatively low toxicity and small accumulation of toxicity upon continuous administration.

[6] = 0.20 mg/kg intraperitoneally for 3 days
[7] = 0.78 mg/kg intraperitoneally for 3 days
[8] = 3.13 mg/kg intraperitoneally for 3 days
[9] = 12.5 mg/kg intraperitoneally for 3 days
[10] = 6.25 mg/kg intraperitoneally for 3 days
[11] = 25 mg/kg intraperitoneally for 3 days

SMILES: N=C(N)NCCCCCCC(=O)NC(O)C(=O)NCCCCNCCCN (centres unmarked) [(1), N-[4-(3-aminopropyl)aminobutyl]-2-(7-guanidinoheptaneamido)-2-hydroxyethaneamide]
- Footpad swelling (%) [1, 6]: 72%
- Footpad swelling (%) [1, 7]: 87%
- Footpad swelling (%) [1, 8]: 29%
- Footpad swelling (%) [1, 9]: 15%
- inhibition of the reaction of T-lymphocyte blast genesis (in words) [2]: strong ability to inhibit
- inhibition at 10 µg/mL [2]: 93%
- inhibition at 100 µg/mL [2]: 100%
- percentage inhibition of antibody production [3]: 98.5%
- suppression of LPS-induced genesis of B-lymphocyte blasts (in words) [4]: highly effective in suppressing
- inhibition at 10 µg/mL [4]: 98%
- inhibition at 100 µg/mL [4]: 100%
- LD50 [5]: 25 to 50 mg/kg

SMILES: COC(NC(=O)CCCCCCNC(=N)N)C(=O)NCCCCNCCCN (centres unmarked) [(2), N-[4-(3-aminopropyl)aminobutyl]-2-(7-guanidinoheptaneamino)-2-methoxyethaneamide]
- Footpad swelling (%) [1, 6]: 99%
- Footpad swelling (%) [1, 7]: 49%
- Footpad swelling (%) [1, 8]: 5.5%
- percentage inhibition of antibody production [3]: 95.9%
- LD50 [5]: 12.5 to 25 mg/kg

SMILES: N=C(N)NCCCCCCCCC(=O)NC(O)C(=O)NCCCCNCCCN (centres unmarked) [(3), N-[4-(3-aminopropyl)aminobutyl]-2-(9-guanidinononaneamido)-2-hydroxyethaneamide]
- Footpad swelling (%) [1, 6]: 55%
- Footpad swelling (%) [1, 7]: 32%
- Footpad swelling (%) [1, 8]: 11%
- Footpad swelling (%) [1, 9]: 6.6%
- LD50 [5]: 12.5 to 25 mg/kg

SMILES: N=C(N)NCCCCCCC(=O)NCC(=O)NCCCCNCCCN [(4), N-[4-(3-aminopropyl)aminobutyl]-2-(7-guanidinoheptaneamido)-ethaneamide]
- Footpad swelling (%) ([1]; 0.39 mg/kg intraperitoneally for 3 days): 99%
- Footpad swelling (%) [1, 7]: 111%
- Footpad swelling (%) [1, 10]: 46%
- inhibition of the reaction of T-lymphocyte blast genesis (in words) [2]: strong ability to inhibit
- inhibition at 10 µg/mL [2]: 99%
- inhibition at 100 µg/mL [2]: 100%
- percentage inhibition of antibody production [3]: 89,4%
- suppression of LPS-induced genesis of B-lymphocyte blasts (in words) [4]: highly effective in suppressing
- inhibition at 10 µg/mL [4]: 100%
- inhibition at 100 µg/mL [4]: 100%
- LD50 [5]: 12.5 to 25 mg/kg

SMILES: N=C(N)NCCCCCCC(=O)N[C@@H](CO)C(=O)NCCCCNCCCN [(5), N-[4-(3-aminopropyl)aminobutyl]-2-(7-guanidinoheptaneamido)-(S)-2-hydroxymethylethaneamide]
- Footpad swelling (%) [1, 6]: 81%
- Footpad swelling (%) [1, 7]: 117%
- Footpad swelling (%) [1, 8]: 58%
- inhibition of the reaction of T-lymphocyte blast genesis (in words) [2]: strong ability to inhibit
- inhibition at 10 µg/mL [2]: 96%
- inhibition at 100 µg/mL [2]: 100%
- percentage inhibition of antibody production [3]: 89,4%
- suppression of LPS-induced genesis of B-lymphocyte blasts (in words) [4]: highly effective in suppressing
- inhibition at 10 µg/mL [4]: 88%
- inhibition at 100 µg/mL [4]: 100%
- LD50 [5]: 12.5 to 25 mg/kg

SMILES: N=C(N)Nc1ccc(CCCC(=O)NCC(=O)NCCCCNCCCN)cc1 [(6), N-[4-(3-aminopropyl)aminobutyl]-2-[4-(p-guanidinophenyl)butaneamido]ethaneamide]
- Footpad swelling (%) [1, 10]: 102%
- Footpad swelling (%) [1, 11]: 33%
- inhibition of the reaction of T-lymphocyte blast genesis (in words) [2]: strong ability to inhibit
- inhibition at 10 µg/mL [2]: 99%
- inhibition at 100 µg/mL [2]: 100%
- percentage inhibition of antibody production [3]: 92,9%
- suppression of LPS-induced genesis of B-lymphocyte blasts (in words) [4]: highly effective in suppressing
- inhibition at 10 µg/mL [4]: 96%
- inhibition at 100 µg/mL [4]: 100%
- LD50 [5]: 25 to 50 mg/kg

SMILES: N=C(N)Nc1ccc(CCCC(=O)N[C@@H](CO)C(=O)NCCCCNCCCN)cc1 [(7), N-[4-(3-aminopropyl)aminobutyl]-2-[4-(p-guanidinophenyl)-butaneamido]-(S)-2-hydroxymethylethaneamide]
- Footpad swelling (%) [1, 10]: 54%
- Footpad swelling (%) [1, 11]: 42%
- LD50 [5]: 25 to 50 mg/kg

SMILES: N=C(N)NCc1ccc(CCC(=O)N[C@@H](CO)C(=O)NCCCCNCCCN)cc1 [(8), N-[4-(3-aminopropyl)aminobutyl]-2-[3-(p-guanidinomethylphenyl)propaneamido]-(S)-2-hydroxymethylethaneamide]
- Footpad swelling (%) [1, 8]: 50%
- Footpad swelling (%) [1, 9]: 20%
- inhibition of the reaction of T-lymphocyte blast genesis (in words) [2]: strong ability to inhibit
- inhibition at 10 µg/mL [2]: 79%
- inhibition at 100 µg/mL [2]: 100%
- LD50 [5]: 25 to 50 mg/kg

SMILES: N=C(N)Nc1ccc(CCCCC(=O)N[C@@H](CO)C(=O)NCCCCNCCCN)cc1 [(9), N-[4-(3-aminopropyl)aminobutyl]-2-[5-(p-guanidinophenyl)-pentaneamido]-(S)-2-hydroxymethylethaneamide]
- Footpad swelling (%) [1, 8]: 45%
- Footpad swelling (%) [1, 9]: 52%
- LD50 [5]: 25 to 50 mg/kg

SMILES: COC(NC(=O)C=CCCCCNC(=N)N)C(=O)NCCCCNCCCN (centres unmarked) [(10), N-[4-(3-aminopropyl)aminobutyl]-2-[7-guanidinohepta-2-enamido]-2-methoxyethaneamide]
- Footpad swelling (%) [1, 8]: 37%
- Footpad swelling (%) [1, 9]: 6.0%
- LD50 [5]: 25 to 50 mg/kg

SMILES: N=C(N)NCCCCC=CC(=O)NC(O)C(=O)NCCCCNCCCN (centres unmarked) [(11), N-[4-(3-aminopropyl)aminobutyl]-2-[7-guanidinohepta-2-enamido]-2-hydroxyethaneamide]
- Footpad swelling (%) [1, 8]: 40%
- Footpad swelling (%) [1, 9]: 8.5%
- inhibition of the reaction of T-lymphocyte blast genesis (in words) [2]: strong ability to inhibit
- inhibition at 10 µg/mL [2]: 88%
- inhibition at 100 µg/mL [2]: 100%
- suppression of LPS-induced genesis of B-lymphocyte blasts (in words) [4]: highly effective in suppressing
- inhibition at 10 µg/mL [4]: 98%
- inhibition at 100 µg/mL [4]: 100%
- LD50 [5]: 25 to 50 mg/kg

SMILES: N=C(N)NCCCC[C@H](O)CC(=O)NC(O)C(=O)NCCCCNCCCN (some centres unmarked) [Spergualin]
- Footpad swelling (%) [1, 8]: 106%
- Footpad swelling (%) [1, 9]: 28%
